Results reported in patent US20030096379A1, “Method for producing tryptamine derivatives” (priority 2001, published 2003).
Marks after values point to notes of the source that are not given here.

Key:
[1] = molecular target: T1, E. coli DH5α tryptophan synthase (TrpBA) (Escherichia coli, UniProt P0A879); format: biochemical; set-up: key: +: a clear ninhydrin-positive spot at the Rf of standard tryptophan derivatives after 16-65 h; (+): a weak spot in the product region; −: no product observed; NR: experiment not run; conditions: indole derivative + L-serine + PLP, 37° C., 16-65 h, ninhydrin
T1 construct: made in house; host or cells: E. coli LMG194 (pBAD) or BL-21 (pET)
Experimental: (§1) A mixture containing 2 μmole of the indole derivative, 0.05 μmole of PLP and 50 μmol of L-serine in 40 mM KPi buffer in 8% v/v ethanol water, pH 7.5, was warmed to 37° C., then enzyme solution was added to give a final volume of 1 mL. Aliquots (100 μL) were quenched at intervals of 2, 6, and 24 hours or more in microcentrifuge capsules containing 25 μL of 6 M HCl. The quenched samples were evaporated in a Savant Speed-vac. The residues were resuspended in methanol/water (1:1, 50 μL) and analyzed by TLC on Silica gel GF254 plates alongside tryptophan and tryptamine standards, eluting with CH2Cl2/EtOH/H2O/HOAc 77:20:2:1. Products were visualized first by using short-wave UV light, then with ninhydrin spray reagent (1/1/98 w/v/v ninhydrin/HOAc/EtOH) followed by heating.
(§2) Substituted indoles were incubated with L-serine, PLP and enzyme (TrpBA or TnA) prior to TLC analysis as generally described in Example 6. Serine, which can be used instead of pyruvate and ammonia for tryptophan synthesis with TnA, was employed as the 3-carbon acid because pyruvate tended to obscure the tryptophan product spots when plates were visualized with ninhydrin. TnA-catalyzed formation of tryptophan was also faster when serine was the 3-carbon donor. Reaction rates for several substrates were also estimated by HPLC.
(§3) In Table 4, “+” indicates a clear ninhydrin-positive spot at the Rf of standard tryptophan derivatives after 16-65 h; “(+)” indicates a weak spot in the product region; “−” means no product observed, “NR” means experiment not run. ESMS=electrospray mass spectrometry. Unless otherwise indicated, the mass value given represents the singly-protonated molecular ion (M+1).

TrpBA and TDC1 = assay: Coupled enzyme synthesis monitored by HPLC; format: biochemical; conditions: L-serine, PLP, pH 8.5 phosphate buffer, 37° C.
Experimental: To a solution containing L-serine (25 μmol), pyridoxal phosphate (0.05 μmol) and TrpBA (0.02 to 1.5 units, depending on the substrate), TDC1 (0.2 mL 0.6 units) and KPi buffer (0.05 mmol, pH 7.5) in a volume of 0.8 mL were added […] of 5 mM indole derivative in 20% v/v ethanol/water. The mixture was incubated at 37° C. and aliquots were quenched and analyzed as described for Example 8. In cases where tryptamine and/or tryptophan standards were not available, peaks were collected for mass spectral analysis. Electrospray mass spectral analyses were performed.
Mixtures containing indole, L-serine, PLP and TDC1 were incubated in pH 8.5 phosphate buffer, analyzing aliquots by HPLC, as described in Example 12.
The procedure used in Example 24 was carried out by substituting indole with 2-methylindole, 4-hydroxymethylindole, 5-methoxy-, 5-hydroxymethyl-, 5-methoxycarbonyl, and 5,6-dimethoxyindole.

tryptophanase (TnA) = molecular target: T2, tryptophanase (TnA) (Escherichia coli, UniProt P0A853); format: biochemical, E. coli; set-up: key: +: a clear ninhydrin-positive spot at the Rf of standard tryptophan derivatives after 16-65 h; (+): a weak spot in the product region; −: no product observed; NR: experiment not run; conditions: indole derivative + L-serine + PLP, 37° C., 16-65 h, ninhydrin
T2 construct: made in house; host or cells: E. coli LMG194 (pBAD) or BL-21 (pET)
Experimental: as §1, §2, §3

TrpBA = molecular target: T3, TrpBA (Escherichia coli, UniProt P0A879); assay: Relative rates of tryptophan derivative synthesis by HPLC, TrpBA; format: biochemical, E. coli; conditions: initial rate estimated by HPLC, indole = 100%, L-serine
T3 construct: made in house; host or cells: E. coli LMG194 (pBAD) or BL-21 (pET)
Experimental: Reaction mixtures were prepared as in Example 6 and were incubated at 37° C. Aliquots (100 μL) were removed and quenched by addition of to 300 μL of 0.5 M sodium citrate, pH 3.0 in 10% v/v acetonitrile/water in 2 ml microcentrifuge tubes. Following centrifugation for 10 min at 13,000×g, the supernatants were passed through 0.45μ membrane filters prior to HPLC analysis of 20 μL of filtrate.
TnA reactions were run with L-serine as the 3-carbon substrate.

[2] = molecular target: T4, pig kidney aromatic amino acid decarboxylase (pkAAAD) (Sus scrofa, UniProt P80041); assay: Substrate screen for tryptophan decarboxylation, pkAAAD; format: biochemical; set-up: key: +: a clear ninhydrin-positive spot at the Rf of standard tryptophan derivatives after 16-65 h; (+): a weak spot in the product region; −: no product observed; NR: experiment not run; conditions: tryptophan derivative, PLP, pH 7.5, 37° C.
T4 construct: Frozen tissue was partially thawed in lysis buffer, then it was extracted and partially purified; from tissue; host or cells: pig kidney
T4 sequence (P80041 1-486): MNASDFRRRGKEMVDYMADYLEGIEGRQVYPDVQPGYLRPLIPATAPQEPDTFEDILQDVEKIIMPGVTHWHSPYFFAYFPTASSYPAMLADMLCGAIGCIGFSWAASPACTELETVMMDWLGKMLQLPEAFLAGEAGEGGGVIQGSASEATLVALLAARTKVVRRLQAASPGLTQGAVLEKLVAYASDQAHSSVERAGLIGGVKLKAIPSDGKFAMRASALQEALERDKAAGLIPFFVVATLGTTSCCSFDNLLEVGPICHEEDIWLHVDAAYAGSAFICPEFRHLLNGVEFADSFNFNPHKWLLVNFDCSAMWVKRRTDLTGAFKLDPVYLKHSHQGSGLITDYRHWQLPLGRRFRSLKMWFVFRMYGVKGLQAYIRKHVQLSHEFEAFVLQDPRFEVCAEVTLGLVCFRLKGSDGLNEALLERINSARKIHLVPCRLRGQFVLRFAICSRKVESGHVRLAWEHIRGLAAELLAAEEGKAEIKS

[3] = molecular target: T5, synAAAD (synthetic gene based on pkAAAD protein sequence) (Sus scrofa, UniProt P80041); assay: Substrate screen for tryptophan decarboxylation, SynAAAD; format: biochemical; set-up: key: +: a clear ninhydrin-positive spot at the Rf of standard tryptophan derivatives after 16-65 h; (+): a weak spot in the product region; −: no product observed; NR: experiment not run; conditions: tryptophan derivative, PLP, pH 7.5, 37° C.
T5 construct: made in house; host or cells: E. coli (pET-15 vector)
T5 sequence (P80041 1-486): T4 sequence (P80041 1-486)
Experimental: (§4) A mixture containing 1 μmole of the tryptophan derivative, 0.05 μmole of PLP and 50 μmol of L-serine in 40 mM pH 7.5 KPi buffer was warmed to 37° C., then enzyme solution was added to give a final volume of 1 mL. Aliquots (100 HL) were quenched at intervals and were evaporated in a Savant Speed-vac as in Example 6. For TLC analysis, CH2Cl2/EtOH/H2O/HOAc 49:49:1:1 was used as the solvent. The plates were visualized with short-wave UV light and ninhydrin as in Example 6.
(§5) HPLC techniques were used to monitor the decarboxylation of substituted tryptophans. Mass spectral analysis of the collected HPLC peaks was used to confirm the identity of several tryptamine derivatives, as shown in Table 5.

[4] = molecular target: T6, tryptophan decarboxylase TDC2 (Camptotheca acuminata, UniProt P93083); assay: Substrate screen for tryptophan decarboxylation, TDC2; format: biochemical, C. accuminata; set-up: key: +: a clear ninhydrin-positive spot at the Rf of standard tryptophan derivatives after 16-65 h; (+): a weak spot in the product region; −: no product observed; NR: experiment not run; conditions: tryptophan derivative, PLP, pH 7.5, 37° C.
T6 construct: made in house; host or cells: E. coli DH5α (pKK233 plasmid from C. Nessler)
T6 sequence (P93083 1-498): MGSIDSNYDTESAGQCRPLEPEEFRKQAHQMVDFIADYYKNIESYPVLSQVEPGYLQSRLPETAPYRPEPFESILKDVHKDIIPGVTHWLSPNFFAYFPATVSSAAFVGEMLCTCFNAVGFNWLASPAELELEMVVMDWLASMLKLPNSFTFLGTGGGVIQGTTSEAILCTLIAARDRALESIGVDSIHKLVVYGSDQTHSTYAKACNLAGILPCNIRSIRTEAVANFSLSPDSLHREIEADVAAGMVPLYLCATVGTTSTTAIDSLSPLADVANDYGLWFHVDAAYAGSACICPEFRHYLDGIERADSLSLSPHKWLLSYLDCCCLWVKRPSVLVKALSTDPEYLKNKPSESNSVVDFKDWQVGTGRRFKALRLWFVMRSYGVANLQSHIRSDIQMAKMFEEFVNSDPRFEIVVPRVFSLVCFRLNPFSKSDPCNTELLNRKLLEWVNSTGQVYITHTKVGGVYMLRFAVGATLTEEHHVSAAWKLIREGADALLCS
Experimental: as §4, §5

[5] = molecular target: T7, tryptophan decarboxylase TDC1 (Camptotheca acuminata, UniProt P93082); assay: Substrate screen for tryptophan decarboxylation, TDC1; format: biochemical, C. accuminata; set-up: key: +: a clear ninhydrin-positive spot at the Rf of standard tryptophan derivatives after 16-65 h; (+): a weak spot in the product region; −: no product observed; NR: experiment not run; conditions: tryptophan derivative, PLP, pH 7.5, 37° C.
T7 construct: made in house; host or cells: E. coli DH5α (pKK233 plasmid from C. Nessler)
T7 sequence (P93082 1-502): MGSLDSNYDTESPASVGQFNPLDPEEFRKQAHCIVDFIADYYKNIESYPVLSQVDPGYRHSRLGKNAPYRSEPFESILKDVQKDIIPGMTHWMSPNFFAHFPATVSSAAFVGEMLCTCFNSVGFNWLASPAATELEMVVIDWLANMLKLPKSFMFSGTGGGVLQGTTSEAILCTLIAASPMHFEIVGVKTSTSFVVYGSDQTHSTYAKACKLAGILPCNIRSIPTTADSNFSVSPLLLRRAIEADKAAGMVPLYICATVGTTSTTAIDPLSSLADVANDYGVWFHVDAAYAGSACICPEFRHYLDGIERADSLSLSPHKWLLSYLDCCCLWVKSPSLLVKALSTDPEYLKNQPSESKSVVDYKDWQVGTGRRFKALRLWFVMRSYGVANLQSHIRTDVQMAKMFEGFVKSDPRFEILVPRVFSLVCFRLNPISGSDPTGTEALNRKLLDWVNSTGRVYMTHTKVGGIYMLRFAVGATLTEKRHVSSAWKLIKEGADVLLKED
Experimental: as §4, §5

T3 sequence (P0A879 whole entry): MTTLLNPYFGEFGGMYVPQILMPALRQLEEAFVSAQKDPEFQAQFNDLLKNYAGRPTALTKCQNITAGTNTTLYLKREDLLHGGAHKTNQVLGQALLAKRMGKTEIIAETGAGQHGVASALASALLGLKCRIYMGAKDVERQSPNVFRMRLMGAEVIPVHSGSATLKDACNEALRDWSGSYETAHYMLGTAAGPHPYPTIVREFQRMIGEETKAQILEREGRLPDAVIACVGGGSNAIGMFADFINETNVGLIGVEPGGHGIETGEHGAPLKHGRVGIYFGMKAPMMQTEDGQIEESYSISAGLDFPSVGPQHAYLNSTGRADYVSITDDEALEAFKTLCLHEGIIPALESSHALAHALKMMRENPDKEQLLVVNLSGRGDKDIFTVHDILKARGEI
T3 sequence (P0A877 whole entry, further chain): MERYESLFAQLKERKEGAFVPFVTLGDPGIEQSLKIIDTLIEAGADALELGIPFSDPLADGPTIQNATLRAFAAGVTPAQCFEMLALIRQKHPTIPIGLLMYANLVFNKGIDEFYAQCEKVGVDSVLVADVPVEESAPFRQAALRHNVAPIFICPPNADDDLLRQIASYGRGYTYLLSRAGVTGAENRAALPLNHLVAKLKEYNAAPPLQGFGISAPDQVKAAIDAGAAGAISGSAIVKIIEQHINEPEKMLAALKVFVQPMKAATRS
T2 sequence (P0A853 whole entry): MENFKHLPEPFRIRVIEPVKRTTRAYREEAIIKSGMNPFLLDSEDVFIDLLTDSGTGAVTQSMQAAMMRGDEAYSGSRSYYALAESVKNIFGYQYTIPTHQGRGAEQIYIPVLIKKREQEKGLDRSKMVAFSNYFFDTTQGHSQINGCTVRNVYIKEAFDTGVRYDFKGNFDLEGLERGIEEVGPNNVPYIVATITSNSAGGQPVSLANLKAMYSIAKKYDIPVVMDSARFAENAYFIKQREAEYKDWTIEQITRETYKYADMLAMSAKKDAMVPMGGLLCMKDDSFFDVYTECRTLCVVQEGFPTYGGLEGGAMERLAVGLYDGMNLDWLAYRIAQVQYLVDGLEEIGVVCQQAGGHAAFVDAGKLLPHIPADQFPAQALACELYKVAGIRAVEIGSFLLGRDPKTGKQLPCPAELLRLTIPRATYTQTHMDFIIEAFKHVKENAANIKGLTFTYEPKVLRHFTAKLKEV
T1 sequence (P0A879 whole entry): as the sequence (P0A879 whole entry) above
T1 sequence (P0A877 whole entry, further chain): as the sequence (P0A877 whole entry, further chain) above

| Compound | TrpBA (tryptophan product spot, TLC analysis) [1] | formation of tryptophan derivative and tryptamine (HPLC peaks) (TrpBA and TDC1) | TnA (tryptophan product spot, TLC analysis) (tryptophanase (TnA)) | Relative rate (TrpBA) (TrpBA) | pkAAAD (decarboxylation substrate screen) [2] | SynAAAD (decarboxylation substrate screen) [3] | TDC2 (decarboxylation substrate screen) [4] | TDC1 (decarboxylation substrate screen) [5] |
| --- | --- | --- | --- | --- | --- | --- | --- | --- |
| COc1ccc2[nH]ccc2c1 [5-methoxy-] | + | a second peak representing formation of tryptamine | + | 19.0% |  |  |  |  |
| N[C@@H](Cc1c[nH]c2cccc(CO)c12)C(=O)O [L-4-(hydroxymethyl)-trp, 4-(Hydroxymethyl)-L-tryptophan] |  |  |  |  | (+) | + | + | + |
| NC(Cc1c[nH]c2ccc(F)cc12)C(=O)O (racemic) [DL-5-fluoro-trp] |  |  |  |  | − | (+) | (+) | + |
| Cc1ccc2c(CC(N)C(=O)O)c[nH]c2c1 (racemic) [DL-6-methyl-trp] |  |  |  |  | − | (+) | + | + |
| Cc1cccc2[nH]cc(CC(N)C(=O)O)c12 (racemic) [DL-4-methyl-trp] |  |  |  |  | − | + | + | + |
| Cc1cccc2c(CC(N)C(=O)O)c[nH]c12 (racemic) [DL-7-methyl-trp] |  |  |  |  | − | (+) | + | + |
| Cc1ccc2[nH]ccc2c1 [5CH3] |  |  |  | 0.55% |  |  |  |  |
| Cc1cc2ccccc2[nH]1 [2-methyl-, 2-methylindole] | − | a second peak representing formation of tryptamine | + | 20.6* % |  |  |  |  |
| NC(Cc1c[nH]c2cccc(F)c12)C(=O)O (racemic) [DL-4-fluoro-trp] |  |  |  |  | + | (+) | + | + |
| NC(Cc1c[nH]c2cc(F)ccc12)C(=O)O (racemic) [DL-6-fluoro-trp] |  |  |  |  | − | − | − | − |
| N[C@@H](Cc1c[nH]c2ccc(O)cc12)C(=O)O [L-5-hydroxy-trp, L-5-hydroxytryptophan, reference compound] |  |  |  |  | + | + |  | + |
| 5-(Methoxycarbonylamino)indole [5-(methoxycarbonyl)amino-] |  | a second peak representing formation of tryptamine |  |  |  |  |  |  |
| Cc1ccc2[nH]cc(CC(N)C(=O)O)c2c1 (racemic) [DL-5-methyl-trp] |  |  |  |  | − | − | + | + |
| COC(=O)Nc1ccc2[nH]cc(C[C@H](N)C(=O)O)c2c1 [L-5-(methoxycarbonyl)-amino-trp, 5-(Methoxycarbonyl)amino-L-tryptophan] |  |  |  |  | − | + | + | + |
